Data on 13 compounds can be found in patent publication US10759813B2, “Neprilysin inhibitors” (THERAVANCE BIOPHARMA R&D IP, LLC, priority 2010, dated 2020).

As a reminder, the pKi is the negative decadic logarithm of the Ki, by convention in mol/L. As a reminder, the Ki is a dissociation constant, usually derived from enzyme kinetics or from competition with a known ligand.

This experiment deals with human neprilysin (EC 3.4.24.11; NEP) (Homo sapiens (Human), UniProt P08473). The experiment can be described thus: In vitro enzyme inhibition assay at human NEP (fluorogenic peptide substrate). It is filed as biochemical. Conditions: pKi values at human NEP, recombinant human NEP. How it is done: In Vitro Assays for the Quantitation of Inhibitor Potencies at Human and Rat NEP, and Human ACE
Sequence of human neprilysin (EC 3.4.24.11; NEP) (P08473 52-750): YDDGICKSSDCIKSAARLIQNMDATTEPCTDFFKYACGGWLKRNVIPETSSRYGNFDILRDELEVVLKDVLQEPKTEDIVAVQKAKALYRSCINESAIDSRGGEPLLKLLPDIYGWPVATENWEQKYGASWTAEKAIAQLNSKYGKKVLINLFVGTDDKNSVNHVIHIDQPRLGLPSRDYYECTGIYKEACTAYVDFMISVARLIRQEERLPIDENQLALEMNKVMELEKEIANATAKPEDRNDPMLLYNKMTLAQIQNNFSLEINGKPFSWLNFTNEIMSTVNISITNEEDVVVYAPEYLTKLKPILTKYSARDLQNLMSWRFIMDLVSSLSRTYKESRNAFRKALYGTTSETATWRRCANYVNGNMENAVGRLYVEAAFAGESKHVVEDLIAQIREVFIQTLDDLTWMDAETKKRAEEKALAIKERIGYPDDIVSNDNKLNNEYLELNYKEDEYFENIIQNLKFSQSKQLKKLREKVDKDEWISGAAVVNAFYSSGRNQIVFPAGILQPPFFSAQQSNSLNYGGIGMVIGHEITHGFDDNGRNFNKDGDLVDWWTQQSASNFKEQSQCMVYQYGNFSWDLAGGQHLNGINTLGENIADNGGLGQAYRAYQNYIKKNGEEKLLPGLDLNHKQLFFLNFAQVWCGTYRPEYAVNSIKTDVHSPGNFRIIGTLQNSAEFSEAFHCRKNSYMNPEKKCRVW
The inhibitory activities of compounds at human and rat neprilysin (EC 3.4.24.11; NEP) and human angiotensin converting enzyme (ACE) were determined using in vitro assays as described below.
Recombinant human NEP and recombinant human ACE were obtained commercially (R&D Systems, Minneapolis, Minn., catalog numbers 1182-ZN and 929-ZN, respectively). The fluorogenic peptide substrate Mca-D-Arg-Arg-Leu-Dap-(Dnp)-OH (Medeiros et al. (1997) Braz. J. Med. Biol. Res. 30:1157-62; Anaspec, San Jose, Calif.) and Abz-Phe-Arg-Lys(Dnp)-Pro-OH (Araujo et al. (2000) Biochemistry 39:8519-8525; Bachem, Torrance, Calif.) were used in the NEP and ACE assays respectively.
The assays were performed in 384-well white opaque plates at 37° C. using the fluorogenic peptide substrates at a concentration of 10 μM in Assay Buffer (NEP: 50 mM HEPES, pH 7.5, 100 mM NaCl, 0.01% polyethylene glycol sorbitan monolaurate (Tween-20), 10 μM ZnSO4; ACE: 50 mM HEPES, pH 7.5, 100 mM NaCl, 0.01% Tween-20, 1 μM ZnSO4).
Test compounds were assayed over the range of concentrations from 10 μM to pM. Test compounds were added to the enzymes and incubated for 30 minute at 37° C. prior to initiating the reaction by the addition of substrate. Reactions were terminated after 20 minutes of incubation at 37° C. by the addition of glacial acetic acid to a final concentration of 3.6% (v/v).
Plates were read on a fluorometer with excitation and emission wavelengths set to 320 nm and 405 nm, respectively. Inhibition constants were obtained by nonlinear regression of the data using the equation (GraphPad Software, Inc., San Diego, Calif.): v=v0/[1+(I/K′)] where v is the reaction rate, v0 is the uninhibited reaction rate, I is the inhibitor concentration and K′ is the apparent inhibition constant.
Compounds of the invention were tested in this assay and found to have pKi values at human NEP as follows.
Regarding `CC(=O)c1cc(C(=O)N[C@H](Cc2ccc(-c3ccccc3)cc2)C[C@@H](O)C(=O)O)[nH]n1` [Example 1-B, (2R,4R)-4-[(5-Acetyl-2H-pyrazole-3-carbonyl)amino]-5-biphenyl-4-yl-2-hydroxypentanoic Acid], the pKi was not below 9.0.

Turning to `O=C(N[C@H](Cc1ccc(-c2ccccc2)cc1)C[C@H](O)C(=O)O)c1cc(C(=O)O)[nH]n1` [Example 2-C, 5-((1R,3S)-1-Biphenyl-4-ylmethyl-3-carboxy-3-hydroxypropylcarbamoyl)-2H-pyrazole-3-carboxylic Acid], the pKi was not below 9.0.

`O=C(N[C@H](Cc1ccc(-c2ccccc2)cc1)C[C@@H](O)C(=O)O)c1cc(C(=O)O)[nH]n1` [Example 2-D, 5-((1R,3R)-1-Biphenyl-4-ylmethyl-3-carboxy-3-hydroxypropylcarbamoyl)-2H-pyrazole-3-carboxylic Acid]: the pKi is given as not below 9.0.

Regarding `COCCN(C)C(=O)c1cc(C(=O)N[C@H](Cc2ccc(-c3ccccc3)cc2)C[C@H](O)C(=O)O)[nH]n1` [Example 3-C, (2S,4R)-5-Biphenyl-4-yl-2-hydroxy-4-({5-[(2-methoxyethyl)methylcarbamoyl]-2H-pyrazole-3-carbonyl}amino)pentanoic Acid], the Ki was 1.26 to 10 nM.

On to `COCCN(C)C(=O)c1cc(C(=O)N[C@H](Cc2ccc(-c3ccccc3)cc2)C[C@@H](O)C(=O)O)[nH]n1` [Example 3-D, (2R,4R)-5-Biphenyl-4-yl-2-hydroxy-4-({5-[(2-methoxyethyl)methylcarbamoyl]-2H-pyrazole-3-carbonyl}amino)pentanoic Acid], for which the pKi is recorded as not below 9.0.

`O=C(N[C@H](Cc1ccc(-c2ccccc2)cc1)C[C@@H](O)C(=O)O)c1cc(C(=O)N2CCC2)n[nH]1` [Example 4-B, (2R,4R)-4-{[5-(Azetidine-1-carbonyl)-2H-pyrazole-3-carbonyl]amino}-5-biphenyl-4-yl-2-hydroxy-pentanoic acid]: the pKi is listed as not below 9.0.

On to `O=C(N[C@H](Cc1ccc(-c2ccccc2)cc1)C[C@@H](O)C(=O)O)c1cc(C(=O)N2CCCC2)n[nH]1` [Example 5-B, (2R,4R)-5-Biphenyl-4-yl-2-hydroxy-4-{[5-(pyrrolidine-1-carbonyl)-2H-pyrazole-3-carbonyl]-amino}pentanoic Acid], for which the pKi is not below 9.0.

For the compound `O=C(N[C@H](Cc1ccc(-c2ccccc2)cc1)C[C@@H](O)C(=O)O)c1cnc(O)nc1` [Example 6-B, (2R,4R)-5-Biphenyl-4-yl-2-hydroxy-4-[(2-hydroxypyrimidine-5-carbonyl)amino]pentanoic Acid], the pKi is not below 9.0.

In the case of `O=C(N[C@H](Cc1ccc(-c2ccccc2)cc1)C[C@@H](O)C(=O)O)c1cc(O)no1` [Example 7-B, (2R,4R)-5-Biphenyl-4-yl-2-hydroxy-4-[(3-hydroxyisoxazole-5-carbonyl)amino]pentanoic Acid], the pKi is on record as not below 9.0.

Regarding `CC(C)(O)c1cc(C(=O)N[C@H](Cc2ccc(-c3ccccc3)cc2)C[C@@H](O)C(=O)O)n[nH]1` [Example 8-B, (2R,4R)-5-Biphenyl-4-yl-2-hydroxy-4-{[5-(1-hydroxy-1-methylethyl)-1H-pyrazole-3-carbonyl]amino}pentanoic acid], the pKi is not below 9.0.

`NC(=O)[C@H](O)C[C@@H](Cc1ccc(-c2ccccc2)cc1)NC(=O)c1cnc(O)nc1` [Example 9, 2-Hydroxypyrimidine-5-carboxylic acid ((1R,3R)-1-biphenyl-4-ylmethyl-3-carbamoyl-3-hydroxypropyl)amide]: the Ki is 12.6 to 100 nM.

Turning to `O=C(N[C@H](Cc1ccc(-c2ccccc2)cc1)C[C@@H](O)C(=O)O)c1cnn[nH]1` [Example 10-2, (2R,4R)-5-Biphenyl-4-yl-2-hydroxy-4-[(3H-[1,2,3]triazole-4-carbonyl)amino]pentanoic acid], the Ki is 1.26 to 10 nM.

As for `O=C(N[C@H](Cc1ccc(-c2ccccc2)cc1)C[C@@H](O)C(=O)O)c1cn(O)nn1` [Example 10-3, (2R,4R)-5-Biphenyl-4-yl-2-hydroxy-4-[(1-hydroxy-1H-[1,2,3]triazole-4-carbonyl)-amino]-pentanoic acid], the pKi was not below 9.0.
